# Laboratory results published in ChEMBL document CHEMBL4806967, “Heterocyclic kinase inhibitors and uses thereof” (2020).
# The source made the active and inactive calls. The rule behind the calls is not given here.
# Key:
# [1] = Free drug concentration in mouse at 30 mg/kg, po measured after 2 hrs; assay type: ADME, organism-based; details: in vivo
# [2] = Free drug concentration in mouse at 30 mg/kg, po measured after 6 hrs; assay type: ADME, organism-based; details: in vivo
# [3] = Metabolic stability in mouse liver microsomes assessed as intrinsic clearance; assay type: ADME, Microsome
# hERG (KCNH2) = hERG (KCNH2) (Homo sapiens, UniProt Q12809); assay: Inhibition of human ERG expressed in HEK cells at 10 uM by automated electrophysiology assay; assay type: cell-based; details: HEK cells that express human ERG
# hERG (KCNH2), sequence (Q12809 whole entry): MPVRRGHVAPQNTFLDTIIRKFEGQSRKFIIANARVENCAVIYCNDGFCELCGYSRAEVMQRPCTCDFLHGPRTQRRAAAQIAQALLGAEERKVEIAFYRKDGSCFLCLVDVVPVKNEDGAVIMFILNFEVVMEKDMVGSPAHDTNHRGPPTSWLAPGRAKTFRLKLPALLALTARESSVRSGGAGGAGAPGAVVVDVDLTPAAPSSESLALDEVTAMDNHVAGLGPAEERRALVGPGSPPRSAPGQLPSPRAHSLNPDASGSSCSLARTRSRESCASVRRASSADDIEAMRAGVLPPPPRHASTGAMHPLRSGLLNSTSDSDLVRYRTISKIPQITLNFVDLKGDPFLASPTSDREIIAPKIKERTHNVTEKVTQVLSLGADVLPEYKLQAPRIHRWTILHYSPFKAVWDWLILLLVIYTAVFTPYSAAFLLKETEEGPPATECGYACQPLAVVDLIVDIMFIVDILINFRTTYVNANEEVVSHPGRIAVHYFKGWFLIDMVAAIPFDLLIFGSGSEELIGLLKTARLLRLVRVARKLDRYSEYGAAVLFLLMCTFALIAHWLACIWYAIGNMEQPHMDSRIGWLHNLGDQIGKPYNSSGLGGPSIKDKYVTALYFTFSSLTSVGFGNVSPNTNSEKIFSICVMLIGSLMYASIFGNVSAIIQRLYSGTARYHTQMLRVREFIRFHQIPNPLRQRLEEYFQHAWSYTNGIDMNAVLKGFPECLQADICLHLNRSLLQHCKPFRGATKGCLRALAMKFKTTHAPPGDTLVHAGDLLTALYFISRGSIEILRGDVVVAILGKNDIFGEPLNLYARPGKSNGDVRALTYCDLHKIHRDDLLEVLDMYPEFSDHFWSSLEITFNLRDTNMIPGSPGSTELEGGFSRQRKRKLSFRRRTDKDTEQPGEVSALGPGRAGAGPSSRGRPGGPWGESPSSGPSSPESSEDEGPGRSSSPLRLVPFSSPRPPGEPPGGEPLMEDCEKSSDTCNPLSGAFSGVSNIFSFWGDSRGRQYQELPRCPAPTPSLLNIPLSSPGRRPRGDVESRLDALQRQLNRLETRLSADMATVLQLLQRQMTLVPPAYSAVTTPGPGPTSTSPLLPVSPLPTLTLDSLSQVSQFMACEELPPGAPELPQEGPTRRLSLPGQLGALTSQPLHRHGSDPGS
# K562 = assay: Anticancer activity against human K562 cells xenografted in SCID mouse assessed as increase in survival at 10 to 30 mg/kg, iv once daily for 5 days; assay type: functional, organism-based; details: dose 10-30 mg/kg, time 5.0 day
# [4] = Toxicity in C57BI/6N mouse implanted subcutaneously with MC38 cells assessed as body weight loss at 30 to 100 mg/kg, po once daily for 3 weeks; assay type: organism-based, MC-38; details: in vivo, dose 30-100 mg/kg
# [5] = Free drug concentration in mouse at 30 mg/kg, po measured after 7 hrs; assay type: ADME, organism-based; details: in vivo
# [6] = Toxicity in C57BL/6 mouse assessed as signs of intolerance by measuring change in posture upto 100 mg/kg, gavage twice daily measured after 7 days; assay type: organism-based; details: in vivo, po, 168 h, time 7 day
# [7] = Toxicity in C57BL/6 mouse assessed as signs of intolerance by measuring ease of handling upto 100 mg/kg, gavage twice daily measured after 7 days; assay type: organism-based; details: in vivo, po, 168 h, time 7 day
# [8] = Toxicity in C57BL/6 mouse assessed as signs of intolerance by measuring change in arousal upto 100 mg/kg, gavage twice daily measured after 7 days; assay type: organism-based; details: in vivo, po, 168 h, time 7 day
# [9] = Toxicity in C57BL/6 mouse assessed as signs of intolerance by measuring tail pinch upto 100 mg/kg, gavage twice daily measured after 7 days; assay type: organism-based; details: in vivo, po, 168 h, time 7 day
# [10] = Toxicity in C57BL/6 mouse assessed as signs of intolerance by measuring diarrhoea upto 100 mg/kg, gavage twice daily measured after 7 days; assay type: organism-based; details: in vivo, po, 168 h, time 7 day
# [11] = Toxicity in C57BL/6 mouse assessed as signs of intolerance by measuring change in piloerection upto 100 mg/kg, gavage twice daily measured after 7 days; assay type: organism-based; details: in vivo, po, 168 h, time 7 day
# [12] = AUCextrap in CD-1 mouse at 30 mg/kg, po; assay type: ADME, organism-based; details: in vivo
# [13] = Toxicity in C57BL/6 mouse assessed as signs of intolerance by measuring change in salivation upto 100 mg/kg, gavage twice daily measured after 7 days; assay type: organism-based; details: in vivo, po, 168 h, time 7 day
# [14] = Toxicity in C57BL/6 mouse assessed as signs of intolerance by measuring change in intact fur/coat upto 100 mg/kg, gavage twice daily measured after 7 days; assay type: organism-based; details: in vivo, po, 168 h, time 7 day
# [15] = Toxicity in C57BL/6 mouse assessed as maximum tolerated dose administered through gavage twice daily measured after 7 days; details: in vivo, po, time 7 day
# [16] = Toxicity in C57BL/6 mouse assessed as signs of intolerance by measuring chromo-dacryorrhea upto 100 mg/kg, gavage twice daily measured after 7 days; assay type: organism-based; details: in vivo, po, 168 h, time 7 day
# [17] = Toxicity in C57BL/6 mouse assessed as signs of intolerance by measuring change in normal motor movements upto 100 mg/kg, gavage twice daily measured after 7 days; assay type: organism-based; details: in vivo, po, 168 h, time 7 day
# MC-38 = assay: Anticancer activity against mouse MC38 cells subcutaneously implanted in C57BI/6N mouse assessed as tumour growth inhibition at 100 mg/kg, po once daily for 3 weeks; assay type: functional; details: read-out: TGI
# [18] = Free drug concentration in mouse at 30 mg/kg, po measured after 24 hrs; assay type: ADME, organism-based; details: in vivo
# [19] = AUCextrap in CD-1 mouse at 1 mg/kg, iv; assay type: ADME, organism-based; details: in vivo
# [20] = Toxicity in C57BL/6 mouse assessed as signs of intolerance by measuring change in lacrimation upto 100 mg/kg, gavage twice daily measured after 7 days; assay type: organism-based; details: in vivo, po, 168 h, time 7 day
# [21] = Toxicity in C57BL/6 mouse assessed as signs of intolerance by measuring change in vocalization upto 100 mg/kg, gavage twice daily measured after 7 days; assay type: organism-based; details: in vivo, po, 168 h, time 7 day
structure (smiles),measurement,setting,value
Cc1nc(Nc2ncc(C(=O)Nc3c(C)csc3Cl)s2)cc(N2CCN(C)CC2)n1,Drug uptake(free),[1],44 nM
same,Drug uptake(free),[2],8 nM
Cc1nc(Nc2ncc(C(=O)Nc3c(Cl)csc3C)s2)cc(N2CCN(CCO)CC2)n1,Drug uptake(free),[1],80 nM
same,Drug uptake(free),[2],4 nM
Cc1nc(Nc2ncc(C(=O)Nc3ncccc3C)s2)cc(N2CCN(CCO)CC2)n1,CLint,[3],38 µL/min/mg
Cc1nc(Nc2ncc(C(=O)Nc3c(C)cccc3Cl)s2)cc(N2CCN(CCO)CC2)n1.O [DASATINIB],inhibition at 10 µM,hERG (KCNH2),36%
same,Activity,K562,Active
same,Drug uptake(free),[1],30 nM
same,Activity,[4],Non-Toxic
Cc1nc(Nc2ncc(C(=O)Nc3c(Cl)csc3Cl)s2)cc(N2CCN(CCO)CC2)n1,Drug uptake(free),[1],43 nM
same,Drug uptake(free),[2],5 nM
Cc1nc(Nc2ncc(C(=O)Nc3c(C)csc3Cl)s2)cc(N2CCN(CCO)CC2)n1,Drug uptake(free),[5],3 nM
same,Activity,[6],Non-Toxic
same,Activity,[7],Non-Toxic
same,Activity,[8],Non-Toxic
same,Activity,[9],Non-Toxic
same,Activity,[10],Non-Toxic
same,Activity,[11],Non-Toxic
same,%AUCextra,[12],5.81%
same,Drug uptake(free),[1],32 nM
same,Activity,[13],Non-Toxic
same,Activity,[14],Non-Toxic
same,MTD at 168 h,[15],≤ 100 mg/kg
same,Activity,[16],Non-Toxic
same,Activity,[17],Non-Toxic
same,inhibition in vivo at 100 mg/kg,MC-38,38%
same,Drug uptake(free),[18],0.1 nM
same,%AUCextra,[19],5.81%
same,Activity,[20],Non-Toxic
same,Activity,[21],Non-Toxic
same,Activity,[4],Non-Toxic
